The text below walks through data of patent US9012502B2, “Cancer heat therapy-enhancing agent” (SBI Pharmaceuticals Co., Ltd., priority 2010, dated 2015).

This test has as its system HEK293 cells. The test can be described thus: Assay for intracellular reactive oxygen species (DCF-DA, flow cytometry). The format is cell-based, human. The settings on record: for fluorescence peak value derived from DCF-DA: 42° C. (5-ALA-free cells 244); for level of intracellular reactive oxygen species, increase compared with 5-ALA-free cells: 42° C. for 24 hours, in the dark; for level of intracellular reactive oxygen species (in words): 0.5-2.0 mM 5-ALA. From the text: To investigate what kind of effect 5-aminolevulinic acids according to the present invention could exert on a level of intracellular reactive oxygen species during thermotherapy, human embryonic kidney-derived HEK293 cells and a DCF-DA fluorescent reagent (2′,7′-dichlorodihydrofluorescein diacetate; H2DCFDA) were used to perform an assay for measuring a level of intracellular reactive oxygen species. Note that this assay uses characteristics as follows. Cell-permeable H2DCFDA remains a non-fluorescent substance until it is oxidized in the cytoplasm of a viable cell. Once it enters the viable cell, its diacetate group is cleaved by an intracellular esterase. Then, the resulting molecule is further oxidized by reactive oxygen species to emit fluorescence. The higher the measured fluorescence level, the higher the level of intracellular reactive oxygen species. This assay was performed using the following procedure.
First, HEK293 cells were cultured at 37° C. for 24 hours in 10% fetal bovine serum (FBS)-containing Dulbecco's Modified Eagle (DME) medium. The cells were split into 8 groups. Next, the medium was replaced by an FBS-free DME medium. Then, 5-aminolevulinic acid (5-ALA) was added to each group at a final concentration of 0.5 mM, 1.0 mM, or 2.0 mM, and cultured at 37° C. for 2 hours. After that, 10% FBS was added, and the resulting HEK293 cells were incubated at 37 or 42° C. for 24 hours. In addition, 5-ALA-free HEK293 cells were likewise incubated at 37 or 42° C. for 24 hours. All the above culture processes were conducted in the dark, so that an ultraviolet light, visible light, infrared light, or radiation, etc., was never used for irradiation.
Furthermore, to each group of the HEK293 cells was added a DCF-DA fluorescent reagent (manufactured by Sigma-Aldrich Corporation) at a final concentration of 20 μM. The resulting mixture was incubated for 30 minutes. Then, fluorescence (FL1: green fluorescence) derived from the DCF-DA was measured for each group by flow cytometry (FACSCalibur, manufactured by Becton, Dickinson and Company). […] More specifically, when 0.5 mM of 5-ALA was added at an incubation temperature of 42° C., the level of intracellular reactive oxygen species was increased by 1.23 times (300/244) compared with that of the 5-ALA-free cells. When 1.0 mM of 5-ALA was added, the level of intracellular reactive oxygen species was increased by 1.34 times (326/244). When 2.0 mM of 5-ALA was added, the level of intracellular reactive oxygen species was increased by 1.42 times (346/244).

As for `NCC(=O)CCC(=O)O` [5-ALA, 5-aminolevulinic acid], the “fluorescence peak value derived from DCF-DA” value is given as 300 (0.5 mM 5-ALA), 326 (1.0 mM 5-ALA) and 346 (2.0 mM 5-ALA). Moreover, the “level of intracellular reactive oxygen species, increase compared with 5-ALA-free cells” value reads like this: (0.5 mM 5-ALA) 1.23 times; (1.0 mM 5-ALA) 1.34 times; (2.0 mM 5-ALA) 1.42 times. Also, the “level of intracellular reactive oxygen species (in words)” value (incubation temperature 37° C.) is “somewhat increased” and the “level of intracellular reactive oxygen species (in words)” value (incubation temperature 42° C.) is listed as “markedly increased”.
